In the assay the test system is BRM-dependent transcription (BRG1 mutant lung cancer cell line A549). Kind of assay: BRM-dependent transcription, MMTV luciferase reporter in BRG1 mutant A549 cells. It is filed as cell-based. The following applies: Table 11; for IC50: A549-MMTV luciferase reporter, dexamethasone induced, 6 hours; for Ratio (MDA-MMTV IC50 (μM) divided by A549-MMTV IC50 (μM)): MMTV luciferase reporter cell lines, selectivity BRG1/BRM. The method in brief: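 A549 (BRG1-mutant) cells engineered with a BRM-dependent MMTV luciferase reporter; transcription induced with dexamethasone in presence of compound at various concentrations. Luminescence read 6 h after stimulation.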

For `CCOc1nc(C(F)F)ccc1-c1ccc2cnc(CNC(=O)c3cc(Cl)c4c(c3)S(=O)(=O)[C@@H](F)COC4)cc2n1` [Compound 431], the “Ratio (MDA-MMTV IC50 (μM) divided by A549-MMTV IC50 (μM))” value is reported as 31.77. For the same molecule, half-maximal inhibition (Homo sapiens, A549, 6 h) (IC50) required 0.0095 µM.
Turning to `COCCc1ccc2c(n1)N(c1ccc3cnc(CNC(=O)c4cc(F)c5c(c4)S(=O)(=O)[C@@H](F)CCO5)cc3n1)CCO2` [Compound 432], the “Ratio (MDA-MMTV IC50 (μM) divided by A549-MMTV IC50 (μM))” value is recorded as 25.93. This molecule yielded an IC50 (Homo sapiens, A549, 6 h) of 0.013 µM.
Regarding `[2H]C([2H])([2H])c1cc(C(=O)NCc2cc3nc(-c4cccc(N5C[C@@H](C)O[C@@H](C)C5)n4)ccc3cn2)cc2c1OCC[C@H](F)S2(=O)=O` [Compound 433], the “Ratio (MDA-MMTV IC50 (μM) divided by A549-MMTV IC50 (μM))” value stood at 27.74. The same molecule had an IC50 (Homo sapiens, A549, 6 h) of 0.003 µM.
For `COc1ccc(-c2ccc3cnc(CNC(=O)c4cc(C(F)F)c5c(c4)S(=O)(=O)[C@@H](F)COC5)cc3n2)nc1C1CC1(F)F` (stereo partly shown) [Compound 434] the same measures were 41.19 and 0.0087 µM.
For `O=C(NCc1cc2nc(N3CCOc4ccc(C(F)F)nc43)ccc2cn1)c1cc(Br)c2c(c1)S(=O)(=O)[C@@H](F)CCO2` [Compound 435] the same measures were 25.82 and 0.023 µM.
For `CCOc1nc(C(F)F)ccc1-c1ccc2cnc(CNC(=O)c3cc(Br)c4c(c3)S(=O)(=O)[C@@H](F)COC4)cc2n1` [Compound 436] the same measures were 43.58 and 0.0131 µM.
Regarding `COCCOc1cnc2c(c1)OCCN2c1ccc2cnc(CNC(=O)c3cc(C(F)F)c4c(c3)S(=O)(=O)[C@@H](F)COC4)cc2n1` [Compound 437], the “Ratio (MDA-MMTV IC50 (μM) divided by A549-MMTV IC50 (μM))” value was found to be 35.93. For the setting “Homo sapiens, A549, 6 h”, 0.0058 µM corresponded to half-maximal inhibition (IC50).
The corresponding values for `COCCOc1cnc2c(c1)CCCN2c1ccc2cnc(CNC(=O)c3cc(C(F)F)c4c(c3)S(=O)(=O)[C@@H](F)COC4)cc2n1` [Compound 439] are 27.20 and 0.0133 µM.
On to `[2H]C([2H])([2H])C([2H])([2H])Oc1ccc(-c2ccc3cnc(CNC(=O)c4cc(C(F)F)c5c(c4)S(=O)(=O)[C@@H](F)COC5)cc3n2)nc1C1CC1(F)F` (stereo partly shown) [Compound 440], for which the “Ratio (MDA-MMTV IC50 (μM) divided by A549-MMTV IC50 (μM))” value turned out to be 53.01. The molecule also registered an IC50 (Homo sapiens, A549, 6 h) of 0.0161 µM.
For `O=C(NCc1cc2nc(-c3ccc(C(F)F)c(N4CC(F)C4)n3)ccc2cn1)c1cc(F)c2c(c1)S(=O)(=O)[C@@H](F)CCO2` [Compound 441], the “Ratio (MDA-MMTV IC50 (μM) divided by A549-MMTV IC50 (μM))” value is 21.14. Half-maximal inhibition (Homo sapiens, A549, 6 h) (IC50) was put at 0.0089 µM.
The corresponding values for `O=C(NCc1cc2nc(-c3ccc(C(F)F)c(C4CC4)n3)ccc2cn1)c1cc(Br)c2c(c1)S(=O)(=O)[C@@H](F)COC2` [Compound 442] are 25.83 and 0.0085 µM.
The corresponding values for `C=C(F)c1cc(C(=O)NCc2cc3nc(-c4cccc(N5C[C@@H](C)O[C@@H](C)C5)n4)ccc3cn2)cc2c1OCC[C@H](F)S2(=O)=O` [Compound 443] are 27.83 and 0.0152 µM.
For `O=C(NCc1cc2nc(-c3cccc(OC(F)F)c3F)ccc2cn1)c1cc(Cl)c2c(c1)S(=O)(=O)[C@@H](F)COC2` [Compound 444] the same measures were 24.79 and 0.0226 µM.
Consider `CCOc1nc(C(C)(F)F)ccc1-c1ccc2cnc(CNC(=O)c3cc(Cl)c4c(c3)S(=O)(=O)[C@@H](F)COC4)cc2n1` [Compound 445], for which the “Ratio (MDA-MMTV IC50 (μM) divided by A549-MMTV IC50 (μM))” value is reported as 22.07. Further, the IC50 (Homo sapiens, A549, 6 h) turned out to be 0.0212 µM.
For `[2H]C([2H])([2H])C([2H])([2H])Oc1nc(C(F)F)ccc1-c1ccc2cnc(CNC(=O)c3cc(C(F)F)c4c(c3)S(=O)(=O)[C@@H](F)COC4)cc2n1` [Compound 446] the same measures were 29.71 and 0.0135 µM.
The corresponding values for `O=C(NCc1cc2nc(-c3ccc(OC(F)F)c([C@H]4CC4(F)F)n3)ccc2cn1)c1cc(Cl)c2c(c1)S(=O)(=O)[C@@H](F)COC2` [Compound 447] are 22.11 and 0.0138 µM.
For `O=C(NCc1cc2nc(-c3ccc(OC(F)F)c(C4CC4(F)F)n3)ccc2cn1)c1cc(Br)c2c(c1)S(=O)(=O)[C@@H](F)CCO2` (stereo partly shown) [Compound 448] the same measures were 37.60 and 0.019 µM.
Regarding `O=C(NCc1cc2nc(-c3ccc(OC(F)F)c([C@@H]4CC4(F)F)n3)ccc2cn1)c1cc(Cl)c2c(c1)S(=O)(=O)[C@@H](F)COC2` [Compound 449], the “Ratio (MDA-MMTV IC50 (μM) divided by A549-MMTV IC50 (μM))” value is given as 37.87. Where the note is “Homo sapiens, A549, 6 h”, this molecule returned an IC50 of 0.0074 µM.
For `COc1nc([C@@H](F)CF)ccc1-c1ccc2cnc(CNC(=O)c3cc(Br)c4c(c3)S(=O)(=O)[C@@H](F)COC4)cc2n1` [Compound 450] the same measures were 35.43 and 0.0154 µM.
As to `O=C(NCc1cc2nc(-c3ccc(OC(F)F)c([C@@H]4CC4(F)F)n3)ccc2cn1)c1cc(C(F)F)c2c(c1)S(=O)(=O)[C@@H](F)COC2` [Compound 451], the “Ratio (MDA-MMTV IC50 (μM) divided by A549-MMTV IC50 (μM))” value stood at 25.86. The molecule also gave an IC50 (Homo sapiens, A549, 6 h) of 0.0056 µM.
For the molecule `O=C(NCc1cc2nc(-c3cncc(OC(F)F)n3)ccc2cn1)c1cc(Cl)c2c(c1)S(=O)(=O)[C@@H](F)COC2` [Compound 452], the “Ratio (MDA-MMTV IC50 (μM) divided by A549-MMTV IC50 (μM))” value stood at 28.85. In addition, the IC50 (Homo sapiens, A549, 6 h) is 0.0204 µM.
Consider `O=C(NCc1cc2nc(-c3ccc([C@H](F)C(F)F)c(C4CC4)n3)ccc2cn1)c1cc(F)c2c(c1)S(=O)(=O)[C@@H](F)COC2` [Compound 453], for which the “Ratio (MDA-MMTV IC50 (μM) divided by A549-MMTV IC50 (μM))” value is on record as 28.72. This molecule also gave an IC50 (Homo sapiens, A549, 6 h) of 0.0088 µM.
The corresponding values for `[2H]C([2H])([2H])C([2H])([2H])Oc1nc([C@@H](F)CF)ccc1-c1ccc2cnc(CNC(=O)c3cc(Cl)c4c(c3)S(=O)(=O)[C@@H](F)CCO4)cc2n1` [Compound 454] are 29.67 and 0.0142 µM.
The corresponding values for `[2H]C([2H])([2H])Oc1ccc(-c2ccc3cnc(CNC(=O)c4cc(C(F)F)c5c(c4)S(=O)(=O)[C@@H](F)COC5)cc3n2)nc1C1CC1(F)F` (stereo partly shown) [Compound 455] are 45.81 and 0.0104 µM.
For `CCOc1nc([C@@H](F)CF)ccc1-c1ccc2cnc(CNC(=O)c3cc(Br)c4c(c3)S(=O)(=O)[C@@H](F)COC4)cc2n1` [Compound 456], the IC50 is 0.0097 µM and the “Ratio (MDA-MMTV IC50 (μM) divided by A549-MMTV IC50 (μM))” value came out at 40.89.
With `CCOc1nc([C@@H](F)CF)ccc1-c1ccc2cnc(CNC(=O)c3cc(C(F)F)c4c(c3)S(=O)(=O)[C@@H](F)COC4)cc2n1` [Compound 457], the IC50 was determined as 0.0072 µM and the “Ratio (MDA-MMTV IC50 (μM) divided by A549-MMTV IC50 (μM))” value is given as 33.28.
Turning to `O=C(NCc1cc2nc(-c3cccc4c3OC(F)(F)O4)ccc2cn1)c1cc(F)c2c(c1)S(=O)(=O)[C@@H](F)COC2` [Compound 458], the “Ratio (MDA-MMTV IC50 (μM) divided by A549-MMTV IC50 (μM))” value was 23.65. This molecule had an IC50 (Homo sapiens, A549, 6 h) of 0.0156 µM.
Consider `[2H]C([2H])([2H])Oc1ccc(-c2ccc3cnc(CNC(=O)c4cc(C(F)F)c5c(c4)S(=O)(=O)[C@@H](F)COC5)cc3n2)nc1[C@H]1CC1(F)F` [Compound 459], for which the “Ratio (MDA-MMTV IC50 (μM) divided by A549-MMTV IC50 (μM))” value turned out to be 27.87. The same molecule displayed a concentration for half-maximal inhibition (IC50) (Homo sapiens, A549, 6 h) of 0.0153 µM.
`CCOc1nc([C@H](F)CF)ccc1-c1ccc2cnc(CNC(=O)c3cc(C(F)F)c4c(c3)S(=O)(=O)[C@@H](F)COC4)cc2n1` [Compound 460]: the IC50 was 0.01 µM and the “Ratio (MDA-MMTV IC50 (μM) divided by A549-MMTV IC50 (μM))” value turned out to be 41.47.
Consider `CCOc1nc([C@H](F)CF)ccc1-c1ccc2cnc(CNC(=O)c3cc(Br)c4c(c3)S(=O)(=O)[C@@H](F)COC4)cc2n1` [Compound 461], for which the “Ratio (MDA-MMTV IC50 (μM) divided by A549-MMTV IC50 (μM))” value is reported as 56.88. The molecule further yielded an IC50 (Homo sapiens, A549, 6 h) of 0.0259 µM.
For `COCCOc1cnc2c(c1)C(F)(F)CCN2c1ccc2cnc(CNC(=O)c3cc(Br)c4c(c3)S(=O)(=O)[C@@H](F)CCO4)cc2n1` [Compound 462] the same measures were 25.94 and 0.0081 µM.
Consider `[2H]C([2H])([2H])C([2H])([2H])Oc1ccc(-c2ccc3cnc(CNC(=O)c4cc(F)c5c(c4)S(=O)(=O)[C@@H](F)COC5)cc3n2)nc1C1CC1(F)F` (stereo partly shown) [Compound 463], for which the “Ratio (MDA-MMTV IC50 (μM) divided by A549-MMTV IC50 (μM))” value is 35.00. This molecule also registered an IC50 (Homo sapiens, A549, 6 h) of 0.0062 µM.
The corresponding values for `[2H]C([2H])([2H])C([2H])([2H])Oc1ccc(-c2ccc3cnc(CNC(=O)c4cc(F)c5c(c4)S(=O)(=O)[C@@H](F)COC5)cc3n2)nc1[C@@H]1CC1(F)F` [Compound 464] are 39.23 and 0.0071 µM.
For `O=C(NCc1cc2nc(-c3cnc(OC(F)F)c(C4CC4)n3)ccc2cn1)c1cc(C(F)F)c2c(c1)S(=O)(=O)[C@@H](F)COC2` [Compound 465] the same measures were 55.20 and 0.0226 µM.
The corresponding values for `CN1Cc2c(Cl)cc(C(=O)NCc3cc4nc(-c5cccc(OC(F)F)n5)ccc4cn3)cc2S(=O)(=O)[C@H](F)C1` [Compound 466] are 48.16 and 0.0246 µM.
In the case of `COc1nc(C(C)(F)F)ccc1-c1ccc2cnc(CNC(=O)c3cc(C(F)F)c4c(c3)S(=O)(=O)[C@@H](F)COC4)cc2n1` [Compound 467], the “Ratio (MDA-MMTV IC50 (μM) divided by A549-MMTV IC50 (μM))” value turned out to be 24.85. The same molecule returned an IC50 (Homo sapiens, A549, 6 h) of 0.017 µM.
Regarding `CCOc1nc(C(C)(F)F)ccc1-c1ccc2cnc(CNC(=O)c3cc(F)c4c(c3)S(=O)(=O)[C@@H](F)COC4)cc2n1` [Compound 468], 0.0042 µM corresponded to half-maximal inhibition (IC50) and the “Ratio (MDA-MMTV IC50 (μM) divided by A549-MMTV IC50 (μM))” value was determined as 25.28.
For `C[C@@H]1CCN1c1cnc2c(-c3ccc4cnc(CNC(=O)c5cc(F)c6c(c5)S(=O)(=O)[C@@H](F)COC6)cc4n3)cccc2c1` [Compound 470] the same measures were 0.0041 µM and 29.42.

A word on the IC50: it is the point on the concentration scale where inhibition reaches its midpoint. Higher therefore signals lower potency.

For the origin of these results see patent US12139487B2, “Compounds and uses thereof” (Foghorn Therapeutics Inc., priority 2022, dated 2024).
